Assay results: patent US20100311714A1, “1H-IMIDAZO[4,5-c]QUINOLINONE COMPOUNDS” (priority 2009, published 2010)
≈ marks a conversion by molar mass, not a printed value. Like-named read-outs stand apart in the source and are kept apart here.

Columns and labels:
[1] = biological target: T1, PI3K delta (Homo sapiens, UniProt O00329); assay: PI3K delta kinase assay (Kinase-Glo luminescence); assay type: biochemical
T1 construct: for the full-length p110-d subunit are generated and fused by overlapping PCR; His tag (C); made in house; host or cells: baculovirus BV1060; Tn5 (Trichoplusia ni) or TiniPro insect cells
T1 sequence (O00329 with tags, fused parts or gaps limits assumed): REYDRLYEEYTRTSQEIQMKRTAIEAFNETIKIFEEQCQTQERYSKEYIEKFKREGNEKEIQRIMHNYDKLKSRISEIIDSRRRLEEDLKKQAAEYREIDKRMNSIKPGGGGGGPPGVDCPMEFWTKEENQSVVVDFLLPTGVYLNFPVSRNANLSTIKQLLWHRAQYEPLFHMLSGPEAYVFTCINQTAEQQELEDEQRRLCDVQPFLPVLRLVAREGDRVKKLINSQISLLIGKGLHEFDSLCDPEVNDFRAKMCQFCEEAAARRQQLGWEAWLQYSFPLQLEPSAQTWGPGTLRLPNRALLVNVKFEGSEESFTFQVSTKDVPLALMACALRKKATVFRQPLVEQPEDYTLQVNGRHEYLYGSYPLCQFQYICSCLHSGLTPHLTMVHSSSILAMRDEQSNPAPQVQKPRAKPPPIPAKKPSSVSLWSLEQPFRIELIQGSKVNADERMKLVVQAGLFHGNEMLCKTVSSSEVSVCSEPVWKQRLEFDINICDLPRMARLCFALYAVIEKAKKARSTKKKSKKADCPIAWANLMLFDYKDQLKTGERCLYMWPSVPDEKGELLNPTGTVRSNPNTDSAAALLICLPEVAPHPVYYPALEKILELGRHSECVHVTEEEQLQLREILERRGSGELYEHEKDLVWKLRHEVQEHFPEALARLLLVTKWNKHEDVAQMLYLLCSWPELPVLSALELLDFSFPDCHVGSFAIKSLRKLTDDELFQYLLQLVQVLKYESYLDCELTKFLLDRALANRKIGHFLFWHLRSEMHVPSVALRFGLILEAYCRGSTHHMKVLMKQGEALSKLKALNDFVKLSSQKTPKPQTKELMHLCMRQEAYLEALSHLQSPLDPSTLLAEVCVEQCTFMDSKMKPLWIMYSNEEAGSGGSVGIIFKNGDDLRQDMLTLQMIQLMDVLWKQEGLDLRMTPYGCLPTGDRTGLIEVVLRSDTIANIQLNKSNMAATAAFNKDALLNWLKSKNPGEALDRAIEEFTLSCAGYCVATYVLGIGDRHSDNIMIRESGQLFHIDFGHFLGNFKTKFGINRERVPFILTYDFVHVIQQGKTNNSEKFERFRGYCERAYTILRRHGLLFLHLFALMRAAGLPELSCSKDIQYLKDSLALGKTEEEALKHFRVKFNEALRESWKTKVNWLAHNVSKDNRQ
Summary of the method: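 IC50s derive from 8-point inhibition curves fitted to a 4-parameter logistic model. Reaction: 10 nM purified p110δ/p85 iSH2 fusion, 1 μM ATP, 10 μg/mL PI substrate, pH 7.5 Tris buffer with MgCl2, NaCl, CHAPS and DTT, run 60 min at room temperature; remaining ATP read by Kinase-Glo luminescence.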

[2] = Parallel Artificial Membrane Permeability Assay (PAMPA) at pH 6.8; assay type: physicochemical
Summary of the method: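 Reported as log Pe, membrane permeability was determined by parallel artificial membrane assay at pH 6.8 per Wohnsland–Faller.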

[3] = biological target: T2, PI3K alfa (Homo sapiens, UniProt P42336); assay: PI3K alpha kinase assay (Kinase-Glo luminescence); assay type: biochemical
T2 construct: His tag (C); made in house; host or cells: baculovirus BV1075; Tn5 (Trichoplusia ni) or TiniPro insect cells
T2 sequence (P42336 with tags, fused parts or gaps limits assumed): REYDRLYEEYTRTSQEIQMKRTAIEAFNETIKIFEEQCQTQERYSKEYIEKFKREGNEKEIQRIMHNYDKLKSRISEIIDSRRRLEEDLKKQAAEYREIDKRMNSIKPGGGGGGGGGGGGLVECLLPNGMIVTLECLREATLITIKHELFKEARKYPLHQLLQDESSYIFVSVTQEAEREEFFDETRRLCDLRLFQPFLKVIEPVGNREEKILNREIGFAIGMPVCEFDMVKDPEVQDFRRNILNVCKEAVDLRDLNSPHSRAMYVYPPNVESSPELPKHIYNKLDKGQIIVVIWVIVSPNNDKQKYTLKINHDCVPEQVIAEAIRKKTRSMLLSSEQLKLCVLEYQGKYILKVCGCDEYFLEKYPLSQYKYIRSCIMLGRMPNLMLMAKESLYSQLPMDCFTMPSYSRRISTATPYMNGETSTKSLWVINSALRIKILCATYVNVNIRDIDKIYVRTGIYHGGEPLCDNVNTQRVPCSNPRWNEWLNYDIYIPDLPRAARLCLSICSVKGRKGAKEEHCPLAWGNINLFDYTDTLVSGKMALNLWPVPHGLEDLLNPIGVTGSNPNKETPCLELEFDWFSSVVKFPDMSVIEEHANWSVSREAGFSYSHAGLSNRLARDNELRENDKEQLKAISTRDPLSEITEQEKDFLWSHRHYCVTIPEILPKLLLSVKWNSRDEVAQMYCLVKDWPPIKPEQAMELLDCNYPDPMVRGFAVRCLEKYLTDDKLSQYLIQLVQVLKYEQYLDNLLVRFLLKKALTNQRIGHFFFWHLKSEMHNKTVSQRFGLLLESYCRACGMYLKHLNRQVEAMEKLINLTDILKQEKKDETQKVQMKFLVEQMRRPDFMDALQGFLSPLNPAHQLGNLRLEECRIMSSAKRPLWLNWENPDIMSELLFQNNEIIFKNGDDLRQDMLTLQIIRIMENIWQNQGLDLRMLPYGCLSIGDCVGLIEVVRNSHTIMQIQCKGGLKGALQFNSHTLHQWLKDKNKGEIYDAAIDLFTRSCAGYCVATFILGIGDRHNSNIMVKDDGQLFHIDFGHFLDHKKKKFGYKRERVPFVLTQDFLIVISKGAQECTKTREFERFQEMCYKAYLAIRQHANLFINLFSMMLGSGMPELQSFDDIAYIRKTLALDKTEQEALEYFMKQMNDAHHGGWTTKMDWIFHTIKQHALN
Summary of the method: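 IC50 values come from a four-parameter logistic fit of percent inhibition at eight concentrations, typically 10 to 0.003 μM. Recombinant PI3Kα at 10 nM turned over 1 μM ATP with 10 μg/mL PI for 60 min at room temperature, and residual ATP was measured by Kinase-Glo.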

[4] = High-throughput equilibrium solubility at pH 6.8; assay type: physicochemical; details: pH 6.8, aqueous buffer, thermodynamic from solid; read-out: HT-Eq Sol/pH 6.8
Summary of the method: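 Following the procedure of Zhou et al. (2007), compound solubility was determined at pH 6.8.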

SMILES	IC50 ([1]; read-out: EPK_PI3Kdelta/IC50)	HT-Perm logPe pH6.8 [2]	IC50 ([3]; read-out: EPK_PI3Kalfa/IC50)	solubility thermodynamic [4]	IC50 ([1]; read-out: PI3Kdelta/IC50)	HT-perm/logPe pH6.8 [2]	IC50 ([3]; read-out: PI3Kalfa/IC50)
CCNc1cc(-c2ccc3ncc4c(c3c2)n(-c2ccc(N(C)CC)nc2C)c(=O)n4C)cnc1C [Example 12.2, 8-(5-Ethylamino-6-methyl-pyridin-3-yl)-1-[6-(ethyl-methyl-amino)-2-methyl-pyridin-3-yl]-3-methyl-1,3-dihydro-imidazo[4,5-c]quinolin-2-one]	13 nM	−4	15 nM	5 µg/mL (≈ 10.4 µM)			
Cc1ccc(-n2c(=O)n(C)c3cnc4ccc(-c5cncc(NC(C)C)c5)cc4c32)c(C)n1 [Example 14.8, 1-(2,6-Dimethyl-pyridin-3-yl)-8-(5-isopropylamino-pyridin-3-yl)-3-methyl-1,3-dihydro-imidazo[4,5-c]quinolin-2-one]	46 nM	−4.1	37 nM	12 µg/mL (≈ 27.4 µM)			
COc1cc(-c2ccc3ncc4c(c3c2)n(-c2ccc(N(C)C)nc2C)c(=O)n4C)cnc1CO [Example 19.4, 1-(6-Dimethylamino-2-methyl-pyridin-3-yl)-8-(6-hydroxymethyl-5-methoxy-pyridin-3-yl)-3-methyl-1,3-dihydro-imidazo[4,5-c]quinolin-2-one]	24 nM	−4.1	9 nM	110 µg/mL (≈ 234 µM)			
CNc1ncc(-c2ccc3ncc4c(c3c2)n(-c2cccnc2C)c(=O)n4C)cn1 [Example 2.2, 3-Methyl-8-(2-methylamino-pyrimidin-5-yl)-1-(2-methyl-pyridin-3-yl)-1,3-dihydro-imidazo[4,5-c]quinolin-2-one]				14 µg/mL (≈ 35.2 µM)	22 nM	−4.7	26 nM
CCNc1cc(-c2ccc3ncc4c(c3c2)n(-c2ccc(N(C)CCOC)nc2C)c(=O)n4C)cnc1C [Example 15.6, 8-(5-Ethylamino-6-methyl-pyridin-3-yl)-1-{6-[(2-methoxy-ethyl)-methyl-amino]-2-methyl-pyridin-3-yl}-3-methyl-1,3-dihydro-imidazo[4,5-c]quinolin-2-one]	9 nM	−3.6	12 nM	140 µg/mL (≈ 274 µM)			
COc1nc(N2CCNCC2)ccc1-n1c(=O)n(C)c2cnc3ccc(-c4cnc(N(C)C)nc4)cc3c21 [Example 9.4, 8-(2-Dimethylamino-pyrimidin-5-yl)-1-(2-methoxy-6-piperazin-1-yl-pyridin-3-yl)-3-methyl-1,3-dihydro-imidazo[4,5-c]quinolin-2-one]	17 nM	−6.1	15 nM	> 512 µg/mL			
Cc1nc(F)ccc1-n1c(=O)n(C)c2cnc3ccc(-c4cncc(N)c4)cc3c21 [Example 7.16, 8-(5-Amino-pyridin-3-yl)-1-(6-fluoro-2-methyl-pyridin-3-yl)-3-methyl-1,3-dihydro-imidazo[4,5-c]quinolin-2-one]	56.5 nM	−6	101 nM	187 µg/mL (≈ 467 µM)			
CCOc1ccc(-c2ccc3ncc4c(c3c2)n(-c2cccnc2C)c(=O)n4C)cn1 [Example 2.1, 8-(6-Ethoxy-pyridin-3-yl)-3-methyl-1-(2-methyl-pyridin-3-yl)-1,3-dihydro-imidazo[4,5-c]quinolin-2-one]				3 µg/mL (≈ 7.29 µM)	94 nM	−3.7	56 nM
CCNc1cc(-c2ccc3ncc4c(c3c2)n(-c2ccc(F)nc2C)c(=O)n4C)cnc1CO [Example 7.9, 8-(5-Ethylamino-6-hydroxymethyl-pyridin-3-yl)-1-(6-fluoro-2-methyl-pyridin-3-yl)-3-methyl-1,3-dihydro-imidazo[4,5-c]quinolin-2-one]	36 nM	−5.2	20 nM	299 µg/mL (≈ 652 µM)			
COCCN(C)c1ccc(-n2c(=O)n(C)c3cnc4ccc(-c5cncc(N)c5)cc4c32)c(C)n1 [Example 15.8, 8-(5-Amino-pyridin-3-yl)-1-{6-[(2-methoxy-ethyl)-methyl-amino]-2-methyl-pyridin-3-yl}-3-methyl-1,3-dihydro-imidazo[4,5-c]quinolin-2-one]	45 nM	−5.1	49 nM	56 µg/mL (≈ 119 µM)			
COc1ncccc1-n1c(=O)n(C)c2cnc3ccc(-c4cnc5c(ccn5C)c4)cc3c21 [Example 1.7, 1-(2-Methoxy-pyridin-3-yl)-3-methyl-8-(1-methyl-1H-pyrrolo[2,3-b]pyridin-5-yl)-1,3-dihydro-imidazo[4,5-c]quinolin-2-one]				3 µg/mL (≈ 6.87 µM)	101 nM	−3.8	134 nM
CCOc1cc(-c2ccc3ncc4c(c3c2)n(-c2cccnc2C)c(=O)n4C)cnc1C [Example 2.22, 8-(5-Ethoxy-6-methyl-pyridin-3-yl)-3-methyl-1-(2-methyl-pyridin-3-yl)-1,3-dihydro-imidazo[4,5-c]quinolin-2-one]	61 nM	−3.7	81 nM				
COc1ncccc1-n1c(=O)n(C)c2cnc3ccc(-c4cnc(N)c(C(F)(F)F)c4)cc3c21 [Example 1.3, 8-(6-Amino-5-trifluoromethyl-pyridin-3-yl)-1-(2-methoxy-pyridin-3-yl)-3-methyl-1,3-dihydro-imidazo[4,5-c]quinolin-2-one]					8 nM	−3.8	10 nM
Cc1nc(C(C)(C)O)ccc1-n1c(=O)n(C)c2cnc3ccc(-c4cncc(OC(C)C)c4)cc3c21 [Example 31.9, 1-[6-(1-Hydroxy-1-methyl-ethyl)-2-methyl-pyridin-3-yl]-8-(5-isopropoxy-pyridin-3-yl)-3-methyl-1,3-dihydro-imidazo[4,5-c]quinolin-2-one]	14 nM	−3.8	51 nM				
COc1ccc(-c2ccc3ncc4c(c3c2)n(-c2ncccc2C)c(=O)n4C)cn1 [Example 3.13, 8-(6-Methoxy-pyridin-3-yl)-3-methyl-1-(3-methyl-pyridin-2-yl)-1,3-dihydro-imidazo[4,5-c]quinolin-2-one]					249 nM	−3.7	90 nM
Cc1nc(N2CC(F)(F)C(F)(F)C2)ccc1-n1c(=O)n(C)c2cnc3ccc(-c4cncc(C(C)(C)O)c4)cc3c21 [Example 35.1, 8-[5-(1-Hydroxy-1-methyl-ethyl)-pyridin-3-yl]-3-methyl-1-[2-methyl-6-(3,3,4,4-tetrafluoro-pyrrolidin-1-yl)-pyridin-3-yl]-1,3-dihydro-imidazo[4,5-c]quinolin-2-one]	5 nM	−4.3	7 nM				
CNc1ccc(-c2ccc3ncc4c(c3c2)n(-c2ccc(N3CCCC3)nc2C)c(=O)n4C)cn1 [Example 25.1, 3-Methyl-8-(6-methylamino-pyridin-3-yl)-1-(2-methyl-6-pyrrolidin-1-yl-pyridin-3-yl)-1,3-dihydro-imidazo[4,5-c]quinolin-2-one]	24 nM	−3.9	35 nM				
Cc1nc(F)ccc1-n1c(=O)n(C)c2cnc3ccc(-c4cnc(N)c(CO)c4)cc3c21 [Example 7.17, 8-(6-Amino-5-hydroxymethyl-pyridin-3-yl)-1-(6-fluoro-2-methyl-pyridin-3-yl)-3-methyl-1,3-dihydro-imidazo[4,5-c]quinolin-2-one]	20 nM		64 nM	> 430 µg/mL			
Cc1cccnc1-n1c(=O)n(C)c2cnc3ccc(-c4cnc5ccccc5c4)cc3c21 [Example 3.8, 3-Methyl-1-(3-methyl-pyridin-2-yl)-8-quinolin-3-yl-1,3-dihydro-imidazo[4,5-c]quinolin-2-one]					264 nM	−3.9	70 nM
CNc1ccc(-c2ccc3ncc4c(c3c2)n(-c2cccnc2OC)c(=O)n4C)cn1 [Example 1.4, 1-(2-Methoxy-pyridin-3-yl)-3-methyl-8-(6-methylamino-pyridin-3-yl)-1,3-dihydro-imidazo[4,5-c]quinolin-2-one]					81 nM	−3.9	48 nM
CCOc1ccc(-c2ccc3ncc4c(c3c2)n(-c2ccc(N(C)CCOC)nc2C)c(=O)n4C)cn1 [Example 15.3, 8-(6-Ethoxy-pyridin-3-yl)-1-{6-[(2-methoxy-ethyl)-methyl-amino]-2-methyl-pyridin-3-yl}-3-methyl-1,3-dihydro-imidazo[4,5-c]quinolin-2-one]	117 nM	−3.8	103 nM				
Cc1nc(N2CC(F)(F)C2)ccc1-n1c(=O)n(C)c2cnc3ccc(-c4cncc(C(C)(C)O)c4)cc3c21 [Example 24.2, 1-[6-(3,3-Difluoro-azetidin-1-yl)-2-methyl-pyridin-3-yl]-8-[5-(1-hydroxy-1-methyl-ethyl)-pyridin-3-yl]-3-methyl-1,3-dihydro-imidazo[4,5-c]quinolin-2-one]	18 nM	−5	10 nM				
